Data set [1] relates to drug-sensitive cell lines of Table 2 (EFM-19, MDA-MB-453, T-47D, ZR-75-1, NCI-H441, OVTOKO, NCI-H1838). Briefly: Cell Line Growth Retardation Assay, sensitive cohort. The data set is classed as cell-based, human. The following applies: for pIC50: geometric mean over sensitive cohort, 6 days growth, read-out: AvgSensIC50; for Ther Window: average IC50 drug-resistant group divided by average IC50 drug-sensitive group. The method, then:
(§1) Cells were seeded at densities of 1,000-5,000 cells per well in 48-well tissue culture plates. After a 24 hours rest period, cells were treated with compound at 10 μM, 2 μM, 0.4 μM, 0.08 μM, 0.016 μM, and 0.0032 μM. A group of cells were treated with the vehicle in which the compound was prepared and served as a control. The cells were grown in the presence of compounds for 6 days and were counted on day 0 and day 6. A11 cell counting was performed using a Synentec Cellavista plate imager. […] Growth inhibition was calculated as a ratio of cell population doublings in the presence of compound versus the absence of compound. […] IC50 values for each compound (see Table 3; reported in μM) were calculated by fitting curves to data points from each dose-response assay using the Proc NLIN function in SAS for Windows version 9.2 (SAS Institute, Inc.).
(§2) These sensitive and resistant cohorts were interrogated for response to each compound, and IC50s were calculated for each cell line using the same technique described above. Average IC50s for the sensitive and resistant cohorts were calculated as geometric means of the group. “Therapeutic Window” for each compound was calculated by dividing the average IC50 for the drug-resistant group by the average IC50 for the drug-sensitive group.

The test system of data set [2] is drug-resistant cell lines of Table 2 (NCI-H1437, OV207, HCC1806, NCI-H2172). Briefly: Cell Line Growth Retardation Assay, resistant cohort. The data set is classed as cell-based, human. The following applies: geometric mean over resistant cohort, 6 days growth, read-out: AvgResIC50. The method, then:
as §1, §2

For a further data set, the target named is hERG potassium channels (Homo sapiens (Human), UniProt Q12809). The experiment in a line: hERG Inhibition Assay (QPatch automated patch clamp, CHO cells). The settings on record: percent of control current. (hERG is a cardiac potassium channel; its block is linked to QT prolongation.)
Sequence of hERG potassium channels (Q12809 whole entry): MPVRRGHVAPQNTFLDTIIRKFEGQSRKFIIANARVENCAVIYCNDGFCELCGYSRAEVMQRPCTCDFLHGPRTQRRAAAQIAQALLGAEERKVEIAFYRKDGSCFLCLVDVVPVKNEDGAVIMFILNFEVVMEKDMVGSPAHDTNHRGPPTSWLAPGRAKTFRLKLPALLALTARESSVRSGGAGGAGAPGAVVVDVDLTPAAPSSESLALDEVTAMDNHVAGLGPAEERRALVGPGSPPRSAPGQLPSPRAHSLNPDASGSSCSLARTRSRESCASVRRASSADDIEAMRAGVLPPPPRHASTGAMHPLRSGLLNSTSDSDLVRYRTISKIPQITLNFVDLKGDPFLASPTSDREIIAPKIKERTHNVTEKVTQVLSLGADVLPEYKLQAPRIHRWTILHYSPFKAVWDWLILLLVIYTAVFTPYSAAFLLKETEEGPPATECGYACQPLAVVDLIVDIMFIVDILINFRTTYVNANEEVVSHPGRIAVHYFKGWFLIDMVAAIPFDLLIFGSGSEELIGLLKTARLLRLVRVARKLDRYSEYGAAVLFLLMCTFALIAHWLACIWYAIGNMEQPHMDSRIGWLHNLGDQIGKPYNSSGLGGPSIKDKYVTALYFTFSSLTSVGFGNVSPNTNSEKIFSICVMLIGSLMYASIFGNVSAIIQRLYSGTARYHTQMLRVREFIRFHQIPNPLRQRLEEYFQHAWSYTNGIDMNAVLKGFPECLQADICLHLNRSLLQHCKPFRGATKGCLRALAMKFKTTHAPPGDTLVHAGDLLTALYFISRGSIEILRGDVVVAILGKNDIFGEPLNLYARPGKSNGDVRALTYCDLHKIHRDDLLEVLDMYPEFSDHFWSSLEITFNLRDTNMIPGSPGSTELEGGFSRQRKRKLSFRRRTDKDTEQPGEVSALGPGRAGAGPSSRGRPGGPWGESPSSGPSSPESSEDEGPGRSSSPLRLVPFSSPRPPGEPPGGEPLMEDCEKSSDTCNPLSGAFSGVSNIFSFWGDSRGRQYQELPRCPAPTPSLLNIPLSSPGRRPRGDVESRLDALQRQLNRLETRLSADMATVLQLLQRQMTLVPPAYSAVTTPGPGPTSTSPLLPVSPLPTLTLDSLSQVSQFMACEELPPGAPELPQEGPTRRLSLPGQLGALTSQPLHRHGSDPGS
In a further data set the target is CDK4 (Homo sapiens (Human), UniProt P11802). The experiment in a line: Cdk4 and 6 Enzymatic Inhibition Assay (radiometric 33PanQinase, Ki determination). The data set is classed as biochemical. Here is the method:
(§3) 10 distinct concentrations were prepared, with a dilution endpoint of 6×10^−9 M in 100% DMSO. 100% DMSO was used as a control. 10 μL from each of the serial dilutions were aliquoted into separate wells of a 96-well plate and 90 μL of water were added to each of those wells. The plate was shaken thoroughly, and 5 μL from each of the plate's wells were transferred into wells of the assay plate. The final volume of wells in the assay plate was 50 μL. A11 compounds were tested at 10 assay concentrations in the range from 2×10^−6 M to 6×10^−11 M. The final DMSO concentration in the wells of the assay plate was 1% in all cases.
(§4) A radiometric protein kinase assay (33PanQinase® Activity Assay) was used for measuring the kinase activity of six protein kinases. A11 kinase assays were performed in 96-well FlashPlates™ from PerkinElmer (Boston, MA, USA). The assay for all protein kinases contained 70 mM HEPES-NaOH pH 7.5, 3 mM MgCl2, 3 mM MnCl2, 3 μM Na-orthovanadate, 1.2 mM DTT, 50 μg/mL PEG20000, ATP [γ-33P]-ATP (approx. 9×1005 cpm per well), protein kinase and substrate. The reaction cocktails were incubated at 30° C. for 60 minutes. The reaction was stopped with 50 μL of 2% (v/v) H3PO4, and plates were aspirated and washed two times with 200 μL 0.9% (w/v) NaCl. Incorporation of ^33Pi was determined with a microplate scintillation counter (Microbeta, Wallac).

The target in a further data set is CDK6 (Homo sapiens (Human), UniProt Q00534). The description is as above. The data set is classed as biochemical. Here is the method: as §3, §4
Sequence of CDK6 (Q00534 whole entry): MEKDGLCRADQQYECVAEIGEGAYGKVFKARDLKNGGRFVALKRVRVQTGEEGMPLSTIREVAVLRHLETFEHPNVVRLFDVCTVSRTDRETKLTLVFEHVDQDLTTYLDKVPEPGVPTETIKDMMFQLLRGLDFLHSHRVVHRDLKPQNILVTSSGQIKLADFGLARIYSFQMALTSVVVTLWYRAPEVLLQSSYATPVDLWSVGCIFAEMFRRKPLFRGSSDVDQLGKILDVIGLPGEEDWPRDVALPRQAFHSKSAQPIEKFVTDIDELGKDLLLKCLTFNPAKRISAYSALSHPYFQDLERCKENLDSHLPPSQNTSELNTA
Sequence of CDK6 (P24385 whole entry partner): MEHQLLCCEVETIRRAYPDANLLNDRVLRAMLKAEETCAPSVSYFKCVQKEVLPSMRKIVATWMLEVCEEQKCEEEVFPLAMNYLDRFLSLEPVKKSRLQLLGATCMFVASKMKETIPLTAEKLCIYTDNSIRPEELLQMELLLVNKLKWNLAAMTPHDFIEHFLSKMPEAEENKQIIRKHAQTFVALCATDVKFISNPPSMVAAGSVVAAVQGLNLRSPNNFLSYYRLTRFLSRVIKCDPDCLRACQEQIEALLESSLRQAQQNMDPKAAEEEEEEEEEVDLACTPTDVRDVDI
Data set [3] is described as follows: Caco-2 Assay (Papp A to B). The following applies: human, Caco-2, pH 7.4.
Data set [4] deals with CYP isozymes (IC50s averaged over the isozymes). The experiment in a line: CYP Enzymatic Inhibition Assay in human liver microsomes. Background: Microsomes from liver hold many membrane-bound enzymes, among them those of drug oxidation.
A short description of data set [5]: Measurement of Compound Metabolic Stability in hepatocytes.
The nature of data set [6]: Compound Solubility Assay (kinetic solubility). The data set is classed as physicochemical. The following applies: kinetic from dmso stock. Here is the method: The relative kinetic solubility of each compound was determined at both low (1.2) and neutral (7.4) pH. Compounds were prepared at 10 mM stocks. […] Compounds were allowed to shake at room temperature for 24 hours in 50 mM phosphate buffer pH 7.4, or in SGF buffer pH 1.2 at 37° C. for 24 hours.

pIC50, pKi: −log10 of the molar value. Values after ≈ are worked out from the molar mass of the structure shown. Like-named read-outs stand apart in the source and are kept apart here.

Sequence of CDK4 (P11802 whole entry): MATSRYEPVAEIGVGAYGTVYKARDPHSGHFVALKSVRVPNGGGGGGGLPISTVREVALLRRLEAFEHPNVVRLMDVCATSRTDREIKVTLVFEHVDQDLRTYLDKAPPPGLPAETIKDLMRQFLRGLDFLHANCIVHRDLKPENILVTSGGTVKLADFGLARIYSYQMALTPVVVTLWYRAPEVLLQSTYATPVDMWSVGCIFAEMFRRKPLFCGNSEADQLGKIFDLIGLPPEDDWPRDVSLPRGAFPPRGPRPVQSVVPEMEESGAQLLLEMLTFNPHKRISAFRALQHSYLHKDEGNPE
Sequence of CDK4 (P24385 whole entry partner): as the sequence (P24385 whole entry partner) above

A word on the pKi: it is the Ki on a negative log10 scale, so that one unit is a factor of ten. Low values mean a large Ki, high ones a small Ki. As to `Cc1nc2c(F)cc(-c3nc(Nc4ccc(CN5CCO[C@@]6(CCN(C)C6)C5)cn4)ncc3F)cc2n1C(C)C` [Compound A39, (R)-5-fluoro-4-(4-fluoro-1-isopropyl-2-methyl-1H-benzo[d]imidazol-6-yl)-N-(5-((2-methyl-6-oxa-2,9-diazaspiro[4.5]decan-9-yl)methyl)pyridin-2-yl)pyrimidin-2-amine], the pIC50 was 6.52 in [1] (Homo sapiens, […]) and 6.01 in data set [2] (Homo sapiens, […]). The “Ther Window” value in data set [1] amounted to 3.25. Further, on hERG potassium channels, the hERG came to 14.81%. Also, the pKi on CDK4 is 8.74; on CDK6 it was 8.18.

As usually defined, the Papp A→B is how fast a substance crosses the layer from the apical side. The low end stands for slow passage, the high end for fast passage. Broadly, the IC50 is the concentration that gives 50% inhibition. A lower IC50 goes with greater potency. The term half-life denotes the time in which the quantity being followed falls by half. Higher therefore signals slow decline. `Cc1nc2c(F)cc(-c3nc(Nc4ccc(CN5CCO[C@](C)(CCNCC(F)F)C5)cn4)ncc3F)cc2n1C(C)C` [Compound A6, (R)—N-(5-((2-(2-((2,2-difluoroethyl)amino)ethyl)-2-methylmorpholino)methyl)pyridin-2-yl)-5-fluoro-4-(4-fluoro-1-isopropyl-2-methyl-1H-benzo[d]imidazol-6-yl)pyrimidin-2-amine] displayed a Papp A→B at 2 h, 2 μM in [3] of 1.12 ×10⁻⁶ cm/s. For the same molecule, the pIC50 in data set [1] (Homo sapiens, […]) was 7.00; in data set [2] (Homo sapiens, […]), 6.00. The “Ther Window” value in [1] is given as 10.42. For the same molecule, in data set [4], inhibition was half-maximal at 14600 nM (IC50 at 10 min). In addition, the hERG at hERG potassium channels stood at 32.76%. Further, in data set [5], the half-life at 1 μM amounted to 0.237 h. Moreover, the pKi on CDK4 is 9.08; at CDK6 it was 8.27.

For the molecule `Cc1nc2c(F)cc(-c3nc(Nc4ccc(CN5CCO[C@](C)(CCNC(C)(C)C)C5)cn4)ncc3F)cc2n1C(C)C` [Compound A7, (R)—N-(5-((2-(2-(tert-butylamino)ethyl)-2-methylmorpholino)methyl)pyridin-2-yl)-5-fluoro-4-(4-fluoro-1-isopropyl-2-methyl-1H-benzo[d]imidazol-6-yl)pyrimidin-2-amine], the Papp A→B at 2 h, 2 μM in data set [3] was 0.04 ×10⁻⁶ cm/s. Also, the pIC50 is 6.80 in data set [1] (Homo sapiens, […]) and 6.04 in data set [2] (Homo sapiens, […]). In addition, in data set [1], the “Ther Window” value is 5.75. In data set [5], this molecule gave a half-life at 1 μM of 1.24 h. Also, the values for the negative logarithm of the Ki (pKi) at CDK4 and at CDK6 were 9.00 and 8.37, respectively.

In turn, `Cc1nc2c(F)cc(-c3nc(Nc4ccc(CN5CCO[C@](C)(CCN6CC(F)C6)C5)cn4)ncc3F)cc2n1C(C)C` [Compound A13] had a Papp A→B at 2 h, 2 μM in data set [3] of 1.02 ×10⁻⁶ cm/s. In addition, the pIC50 in data set [1] (Homo sapiens, […]) is 7.15; in data set [2] (Homo sapiens, […]) it was 6.15. Also, the “Ther Window” value in data set [1] stood at 10.82. In addition, in [4], the midpoint of inhibition, the IC50 at 10 min, lay at 15200 nM. At hERG potassium channels, this molecule gave a hERG of 23.72%. The molecule further had a half-life at 1 μM in data set [5] of 0.148 h. The pKi was 9.04 on CDK4 and 8.32 on CDK6.

The molecule `COC1(C)CN(CC[C@]2(C)CN(Cc3ccc(Nc4ncc(F)c(-c5cc(F)c6nc(C)n(C(C)C)c6c5)n4)nc3)CCO2)C1` [Compound A18, (R)-5-fluoro-4-(4-fluoro-1-isopropyl-2-methyl-1H-benzo[d]imidazol-6-yl)-N-(5-((2-(2-(3-methoxy-3-methylazetidin-1-yl)ethyl)-2-methylmorpholino)methyl)pyridin-2-yl)pyrimidin-2-amine] registered a Papp A→B at 2 h, 2 μM in [3] of 0.11 ×10⁻⁶ cm/s. Besides, the pIC50 in [1] (Homo sapiens, […]) is 7.05; in data set [2] (Homo sapiens, […]) it was 6.04. For the same molecule, in data set [1], the “Ther Window” value is 10.77. The molecule also returned an IC50 at 10 min in [4] of 26800 nM. The hERG at hERG potassium channels is given as 21.45%. For the same molecule, in data set [5], the half-life at 1 μM is 1.13 h. The pKi is 8.81 on CDK4 and 8.12 at CDK6.

Regarding `CC(=O)c1c(C)c2cnc(Nc3ccc(N4CCNCC4)cn3)nc2n(C2CCCC2)c1=O` [Palbociclib, reference compound], in data set [3], the Papp A→B at 2 h, 2 μM amounted to 0.27 ×10⁻⁶ cm/s. In addition, the “Ther Window” value in data set [1] came out at 9.37. In data set [4], inhibition was half-maximal at 97700 nM (IC50 at 10 min). The solubility kinetic at 24 h is 29.6 µM (≈ 13.2 µg/mL) in [6] (50 mM phosphate buffer, pH 7.4, aqueous buffer, read-out: KS7) and 196 µM (≈ 87.6 µg/mL) in [6] (simulated gastric fluid, kinetic solubility, SGF buffer pH 1.2, 37° C., 24 hours, read-out: KS1). Moreover, the half-life at 1 μM in data set [5] was 0.915 h.

In turn, `Cc1nc2c(F)cc(-c3nc(Nc4ccc(CN5CCO[C@](C)(CCN6CC(C)(O)C6)C5)cn4)ncc3F)cc2n1C(C)C` [Compound A10, (R)-1-(2-(4-((6-((5-fluoro-4-(4-fluoro-1-isopropyl-2-methyl-1H-benzo[d]imidazol-6-yl)pyrimidin-2-yl)amino)pyridin-3-yl)methyl)-2-methylmorpholin-2-yl)ethyl)-3-methylazetidin-3-ol] displayed a Papp A→B at 2 h, 2 μM in data set [3] of 0.01 ×10⁻⁶ cm/s. The pIC50 is 7.15 in data set [1] (Homo sapiens, […]) and 6.01 in data set [2] (Homo sapiens, […]). The “Ther Window” value in data set [1] is recorded as 14.08. Besides, the half-life at 1 μM in data set [5] came out at 1.11 h. Further, the pKi at CDK4 is 9.02; at CDK6, 8.26.

Consider `CNCC[C@]1(C)CN(Cc2ccc(Nc3ncc(F)c(-c4cc(F)c5nc(C)n(C(C)C)c5c4)n3)nc2)CCO1` [Compound A5, (R)-5-fluoro-4-(4-fluoro-1-isopropyl-2-methyl-1H-benzo[d]imidazol-6-yl)-N-(5-((2-methyl-2-(2-(methylamino)ethyl)morpholino)methyl)pyridin-2-yl)pyrimidin-2-amine], for which the pIC50 in data set [1] (Homo sapiens, […]) is 6.74; in [2] (Homo sapiens, […]), 6.02. Moreover, the “Ther Window” value in [1] is given as 5.33. Besides, the hERG at hERG potassium channels is recorded as 14.76%. The pKi was 8.92 at CDK4 and 8.20 on CDK6.

On to `CCN(CC)C(=O)C[C@]1(C)CN(Cc2ccc(Nc3ncc(F)c(-c4cc(F)c5nc(C)n(C(C)C)c5c4)n3)nc2)CCO1` [Compound A57, (R)-2-(4-((6-((5-fluoro-4-(4-fluoro-1-isopropyl-2-methyl-1H-benzo[d]imidazol-6-yl)pyrimidin-2-yl)amino)pyridin-3-yl)methyl)-2-methylmorpholin-2-yl)-N,N-diethylacetamide], for which the pIC50 in data set [1] (Homo sapiens, […]) is 6.41; in data set [2] (Homo sapiens, […]), 6.00. Also, in data set [1], the “Ther Window” value came to 2.56. In addition, the pKi is 8.41 at CDK4 and 7.62 at CDK6.

In the case of `Cc1nc2c(F)cc(-c3nc(Nc4ccc(CN5CCO[C@](C)(CCN)C5)cn4)ncc3F)cc2n1C(C)C` [Compound A21, (R)—N-(5-((2-(2-aminoethyl)-2-methylmorpholino)methyl)pyridin-2-yl)-5-fluoro-4-(4-fluoro-1-isopropyl-2-methyl-1H-benzo[d]imidazol-6-yl)pyrimidin-2-amine], the pIC50 was 6.82 in [1] (Homo sapiens, […]) and 6.00 in data set [2] (Homo sapiens, […]). For the same molecule, in data set [1], the “Ther Window” value is recorded as 6.58. In [5], this molecule displayed a half-life at 1 μM of 1.61 h.

With `Cc1nc2c(F)cc(-c3nc(Nc4ccc(CN5CCOC(C)(CC(C)N(C)C)C5)cn4)ncc3F)cc2n1C(C)C` (stereo not drawn) [Compound A25], in [1], the “Ther Window” value is listed as 6.52. The pIC50 is 6.92 in data set [1] and 6.10 in data set [2]. Further, the results for the pKi at CDK4 and on CDK6 were 9.10 and 8.46, respectively.

With `Cc1nc2c(F)cc(-c3nc(Nc4ccc(CN5CCOC(C)(CO)C5)cn4)ncc3F)cc2n1C(C)C` (stereo not drawn) [Compound A51], the pIC50 in data set [1] (Homo sapiens, […]) is 6.21; in data set [2] (Homo sapiens, […]) it was 6.00. The “Ther Window” value in data set [1] is 1.62. Besides, the pKi is 8.10 at CDK4 and 7.42 at CDK6.
